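Test compounds were applied to cells in 96-well plates for 48 hours at 5 doses. GI50 = concentration required for 50% inhibition of growth.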 The source made the active and inactive calls. Cut-off read from the data, not from the text of the source: active = GI50 up to about 1.1 µM and inactive = higher.
How the values were obtained:
Experiment in all cases: DTP human tumour cell line panel, 48 h
[1] = tested on: ACHN
[2] = tested on: BT-549
[3] = tested on: COLO 205
[4] = tested on: HL-60
[5] = tested on: HOP-62
[6] = tested on: HT-29
[7] = tested on: K562
[8] = tested on: MDA-MB-435
[9] = tested on: MDA-N
[10] = tested on: Malme-3M
[11] = tested on: NCI/ADR-RES
[12] = tested on: OVCAR-3
[13] = tested on: PC-3
[14] = tested on: SF-268
[15] = tested on: SF-539
[16] = tested on: SK-MEL-28
[17] = tested on: SN12C
[18] = tested on: T47D
[19] = tested on: U-251
[20] = tested on: UO-31

SMILES: Cc1cc(=O)oc2c(C)c(O)ccc12
- GI50 [1]: > 100 µM (inactive)
- GI50 [2]: 35.4 µM (inactive)
- GI50 [3]: > 100 µM (inactive)
- GI50 [4]: 48.6 µM (inactive)
- GI50 [5]: > 100 µM (inactive)
- GI50 [6]: > 100 µM (inactive)
- GI50 [7]: > 100 µM (inactive)
- GI50 [8]: > 100 µM (inactive)
- GI50 [9]: > 100 µM (inactive)
- GI50 [10]: > 100 µM (inactive)
- GI50 [11]: > 100 µM (inactive)
- GI50 [12]: > 100 µM (inactive)
- GI50 [13]: > 100 µM (inactive)
- GI50 [14]: > 100 µM (inactive)
- GI50 [15]: > 100 µM (inactive)
- GI50 [16]: > 100 µM (inactive)
- GI50 [17]: > 100 µM (inactive)
- GI50 [18]: > 100 µM (inactive)
- GI50 [19]: > 100 µM (inactive)
- GI50 [20]: 22.4 µM (inactive)

SMILES: C=C1CC2(OC1=O)c1ccccc1CCc1ccccc12
- GI50 [1]: 1.71 µM (inactive)
- GI50 [2]: 1.58 µM (inactive)
- GI50 [3]: 1.91 µM (inactive)
- GI50 [4]: 0.729 µM (active)
- GI50 [5]: 26.1 µM (inactive)
- GI50 [6]: 1.84 µM (inactive)
- GI50 [7]: 1.71 µM (inactive)
- GI50 [8]: 2.48 µM (inactive)
- GI50 [9]: 1.8 µM (inactive)
- GI50 [10]: 1.94 µM (inactive)
- GI50 [11]: 1.63 µM (inactive)
- GI50 [12]: 1.89 µM (inactive)
- GI50 [13]: 14.3 µM (inactive)
- GI50 [14]: 1.93 µM (inactive)
- GI50 [15]: 2.13 µM (inactive)
- GI50 [16]: 1.81 µM (inactive)
- GI50 [17]: 2.52 µM (inactive)
- GI50 [18]: 2.07 µM (inactive)
- GI50 [19]: 9.12 µM (inactive)
- GI50 [20]: 9.82 µM (inactive)

SMILES: CS(=O)(=O)Nc1ccc(Nc2c3ccccc3nc3ccccc23)cc1
- GI50 [1]: 0.381 µM (active)
- GI50 [2]: 11 µM (inactive)
- GI50 [3]: 1.69 µM (inactive)
- GI50 [4]: 0.389 µM (active)
- GI50 [5]: 1.08 µM (active)
- GI50 [6]: 4.4 µM (inactive)
- GI50 [7]: 2.23 µM (inactive)
- GI50 [8]: 7.87 µM (inactive)
- GI50 [9]: 5.94 µM (inactive)
- GI50 [10]: 2.15 µM (inactive)
- GI50 [11]: 7.28 µM (inactive)
- GI50 [12]: 4.93 µM (inactive)
- GI50 [13]: 2.62 µM (inactive)
- GI50 [14]: 2.78 µM (inactive)
- GI50 [15]: 3.4 µM (inactive)
- GI50 [16]: 4.75 µM (inactive)
- GI50 [17]: 0.714 µM (active)
- GI50 [18]: 2.41 µM (inactive)
- GI50 [19]: 1.74 µM (inactive)
- GI50 [20]: 2.23 µM (inactive)

Reference: ChEMBL document CHEMBL1201862, “PubChem BioAssay data set” (2004)
